The record followed here is US11918551B2, “Methods of treating seizure disorders and Prader-Willi syndrome” (Ovid Therapeutics, Inc., priority 2017, dated 2024).

The nature of the data set: plasma pharmacokinetics (elimination half-life, dose proportionality of Cmax and AUC). As to conditions: in the dose range 5 mg-500 mg.

Description: “PK” refers to the pharmacokinetic profile. Cmax is defined as the highest plasma drug concentration estimated during an experiment (ng/ml). Tmax is defined as the time when Cmax is estimated (min). AUC0-∞ is the total area under the plasma drug concentration-time curve, from drug administration until the drug is eliminated (ng·hr/ml or μg·hr/ml). The area under the curve is governed by clearance. Clearance is defined as the volume of blood or plasma that is totally cleared of its content of drug per unit time (ml/min).

Turning to `N[C@H]1C[C@@H](C(=O)O)CC1=C(F)F`, the AUCs dose proportionality entry is recorded as “greater than proportional increase”.
